Results as given in ChEMBL document CHEMBL2321810, “QSAR investigation of NaV1.7 active compounds using the SVM/Signature approach and the Bioclipse Modeling platform” (Bioorg Med Chem Lett, 2013).

molecular target: Sodium channel protein type 9 subunit alpha (Homo sapiens, UniProt Q15858); test: cell-based
Sequence (Q15858 whole entry): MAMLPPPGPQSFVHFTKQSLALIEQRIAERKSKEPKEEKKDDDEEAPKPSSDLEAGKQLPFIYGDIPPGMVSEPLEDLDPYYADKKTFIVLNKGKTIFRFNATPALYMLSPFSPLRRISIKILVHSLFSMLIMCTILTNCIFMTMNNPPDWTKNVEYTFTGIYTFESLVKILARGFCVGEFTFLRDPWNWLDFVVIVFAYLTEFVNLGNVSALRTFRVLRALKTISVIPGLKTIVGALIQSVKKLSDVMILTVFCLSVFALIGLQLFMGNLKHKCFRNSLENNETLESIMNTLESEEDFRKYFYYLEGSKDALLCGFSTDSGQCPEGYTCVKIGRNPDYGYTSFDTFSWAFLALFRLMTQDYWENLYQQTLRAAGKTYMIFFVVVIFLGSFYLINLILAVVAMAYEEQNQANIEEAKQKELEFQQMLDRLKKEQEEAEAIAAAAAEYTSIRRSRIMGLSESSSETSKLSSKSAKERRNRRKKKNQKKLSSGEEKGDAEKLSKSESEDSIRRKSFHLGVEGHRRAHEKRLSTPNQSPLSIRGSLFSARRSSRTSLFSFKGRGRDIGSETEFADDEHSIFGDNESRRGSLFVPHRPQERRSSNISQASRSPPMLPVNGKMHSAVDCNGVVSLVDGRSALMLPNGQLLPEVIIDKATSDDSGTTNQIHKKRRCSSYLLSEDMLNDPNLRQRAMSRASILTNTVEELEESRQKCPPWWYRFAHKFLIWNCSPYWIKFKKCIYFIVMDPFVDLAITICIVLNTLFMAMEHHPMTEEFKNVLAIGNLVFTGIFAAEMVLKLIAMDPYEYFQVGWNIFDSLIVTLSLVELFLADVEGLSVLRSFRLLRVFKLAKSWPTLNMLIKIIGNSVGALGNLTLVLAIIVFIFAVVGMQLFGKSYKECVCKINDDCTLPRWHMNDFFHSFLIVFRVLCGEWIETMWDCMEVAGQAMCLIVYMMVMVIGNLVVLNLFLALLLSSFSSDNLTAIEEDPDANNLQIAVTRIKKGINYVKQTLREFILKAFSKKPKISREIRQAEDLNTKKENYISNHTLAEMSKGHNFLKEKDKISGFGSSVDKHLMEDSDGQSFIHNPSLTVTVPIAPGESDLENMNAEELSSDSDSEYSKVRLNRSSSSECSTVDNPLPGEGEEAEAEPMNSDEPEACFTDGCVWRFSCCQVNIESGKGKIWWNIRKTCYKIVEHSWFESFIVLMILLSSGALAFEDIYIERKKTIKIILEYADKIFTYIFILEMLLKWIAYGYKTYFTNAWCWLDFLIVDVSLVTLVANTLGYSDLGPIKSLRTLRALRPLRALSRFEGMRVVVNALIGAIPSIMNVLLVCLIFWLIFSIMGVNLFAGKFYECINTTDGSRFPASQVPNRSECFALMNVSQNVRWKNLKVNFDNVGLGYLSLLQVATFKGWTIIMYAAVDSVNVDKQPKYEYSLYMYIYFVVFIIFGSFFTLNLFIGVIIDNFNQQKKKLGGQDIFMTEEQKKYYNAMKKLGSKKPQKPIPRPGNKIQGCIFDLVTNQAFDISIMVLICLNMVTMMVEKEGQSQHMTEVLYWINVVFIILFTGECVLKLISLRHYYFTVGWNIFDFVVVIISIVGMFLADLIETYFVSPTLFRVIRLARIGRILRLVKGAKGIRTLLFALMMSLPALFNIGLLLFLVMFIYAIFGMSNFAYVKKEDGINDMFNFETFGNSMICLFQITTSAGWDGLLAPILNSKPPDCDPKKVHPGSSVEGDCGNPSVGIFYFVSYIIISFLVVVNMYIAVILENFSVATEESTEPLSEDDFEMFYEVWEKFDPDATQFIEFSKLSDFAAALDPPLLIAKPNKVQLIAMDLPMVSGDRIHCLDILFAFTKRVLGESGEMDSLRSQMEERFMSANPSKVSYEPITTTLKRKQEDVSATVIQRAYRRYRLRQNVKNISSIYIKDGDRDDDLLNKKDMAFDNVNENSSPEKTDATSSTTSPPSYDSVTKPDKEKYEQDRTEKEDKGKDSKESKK

Compound | IC50 [µM]
COc1cc(Oc2ccc(S(=O)(=O)Nc3ccc(F)cn3)cc2C#N)ccc1-n1cnc(C)c1 | 30
N#Cc1cc(S(=O)(=O)Nc2ncns2)ccc1Oc1ccc(C(F)(F)F)cc1C1CCOCC1 | 0.0088
CCn1nc(C(F)(F)F)cc1-c1ccc(Oc2ccc(S(=O)(=O)Nc3ncccc3F)cc2C#N)cc1 | 14
N#Cc1ccc(NS(=O)(=O)c2ccc(Oc3ccccc3-c3ccccc3)c(C#N)c2)nc1 | 25
O=S(=O)(Nc1nccs1)c1ccc(Oc2ccc(Oc3ccccc3)cc2)c(F)c1 | 10
Cc1cc(Oc2ccc(S(=O)(=O)Nc3ncc(Cl)s3)cc2C#N)n(C2CCCCC2)n1 | 10
N#Cc1cc(S(=O)(=O)Nc2nccs2)ccc1Oc1ccccc1-c1ccno1 | 10
N#Cc1cc(S(=O)(=O)Nc2nccs2)ccc1Oc1ccccc1-c1nncn1-c1ccccc1 | 10
N#Cc1cc(S(=O)(=O)Nc2nccs2)ccc1Oc1cc(C2CC2)nn1-c1ccccn1 | 10
CCn1nc(C(F)(F)F)cc1-c1ccc(Oc2ccc(S(=O)(=O)Nc3ccc(C#N)cn3)cc2C#N)cc1 | 10
Cc1cncnc1NS(=O)(=O)c1ccc(Oc2ccccc2-c2ccccc2)c(C#N)c1 | 10
Cc1cnc(NS(=O)(=O)c2ccc(Oc3ccccc3-c3ccccc3)c(C#N)c2)nc1 | 10
N#Cc1cnc(NS(=O)(=O)c2ccc(Oc3ccccc3-c3ccccc3)c(C#N)c2)nc1 | 10
CC(C)(C)n1ccc(-c2c(F)cccc2Oc2ccc(S(=O)(=O)Nc3ncns3)cc2C#N)n1 | 10
N#Cc1cnc(NS(=O)(=O)c2ccc(Oc3ccccc3-c3ccccc3)c(C#N)c2)s1 | 12.2
N#Cc1cc(S(=O)(=O)Nc2ncns2)ccc1Oc1cccc(Br)c1-c1cn[nH]c1 | 0.007
N#Cc1cc(S(=O)(=O)Nc2cnoc2)ccc1Oc1ccccc1-c1ccccc1 | 10
N#Cc1cc(S(=O)(=O)Nc2nccs2)ccc1Oc1ccc(-c2cnn(CC(F)(F)F)c2N)cc1 | 10
CCc1nsc(NS(=O)(=O)c2ccc(Oc3ccccc3-c3ccccc3)c(C#N)c2)n1 | 10
N#Cc1cc(S(=O)(=O)Nc2ncns2)ccc1Oc1nccnc1-c1ccccc1 | 10
N#Cc1cc(S(=O)(=O)Nc2ncns2)ccc1Oc1nnccc1-c1ccccc1 | 10
N#Cc1cc(S(=O)(=O)Nc2ncns2)ccc1Oc1ccccc1Oc1ccccc1C(N)=O | 10
N#Cc1cc(S(=O)(=O)Nc2ncco2)ccc1Oc1ccccc1-c1ccccc1 | 10
CC(C)c1nsc(NS(=O)(=O)c2ccc(Oc3ccccc3-c3ccccc3)c(C#N)c2)n1 | 10
N#Cc1cc(S(=O)(=O)Nc2ccccc2)ccc1Oc1ccccc1-c1ccccc1 | 10
N#Cc1cc(S(=O)(=O)Nc2cc(C(F)(F)F)ncn2)ccc1Oc1ccccc1-c1ccccc1 | 10

The next lines start with the values.

IC50 [µM] | Compound
30 | N#Cc1cc(S(=O)(=O)Nc2ccc(F)cn2)ccc1Oc1ccc(CN2CCC2)c(F)c1
30 | Cc1nc(-c2ccccc2Oc2ccc(S(=O)(=O)Nc3ccc(F)cn3)cc2C#N)cs1
0.0094 | N#Cc1ccc(Oc2cc(F)c(S(=O)(=O)Nc3ncns3)cc2Cl)c(-c2ccn[nH]2)c1
0.01 | N#Cc1cc(S(=O)(=O)Nc2ncc(Cl)s2)ccc1Oc1ccc(F)cc1-c1cccc(N)n1
30 | Cn1nccc1-c1cc(Cl)ccc1Oc1ccc(S(=O)(=O)Nc2cncnc2)cc1C#N
10 | O=S(=O)(Nc1cscn1)c1ccc(Oc2cc(C(F)(F)F)nn2-c2ccccc2)c(F)c1
0.0084 | O=S(=O)(Nc1ncns1)c1cc(F)c(Oc2ccc(Cl)cc2C2CCNCC2)cc1F
0.0037 | O=S(=O)(Nc1cscn1)c1cc(F)c(Oc2ccc(Cl)cc2-c2ccnc(N3CCNCC3)c2)cc1F
12.5 | CNc1ncc(Oc2ccc(S(=O)(=O)Nc3ncns3)cc2C#N)c(-c2ccc(F)cc2)n1
10 | N#Cc1cc(S(=O)(=O)Nc2ncns2)ccc1Oc1cnc(N)nc1-c1ccc(Cl)cc1
0.0049 | NCc1cc(-c2cc(Cl)ccc2Oc2cc(F)c(S(=O)(=O)Nc3ncns3)cc2Cl)ccn1
0.0024 | Nc1cc(-c2cc(OC(F)(F)F)ccc2Oc2cc(F)c(S(=O)(=O)Nc3ncns3)cc2F)ccn1
